Patent publication US20220225159A1, “PARENTERAL DELIVERY OF AVIZAFONE” (Sollievo Pharmaceuticals, Inc, priority 2020, published 2022)

Tests used:
[1] = Diazepam plasma PK after single-dose IM administration of AVF to dogs, Study 1 (Example 1)
beagle dogs = assay: Time to onset of sedation after IM administration of AVF in a canine model; type: in vivo
[2] = Diazepam plasma PK after single-dose SQ administration of AVF to dogs (Example 1); settings: mean; single-dose SQ approx. 1.9 mg/kg avizafone; NCA
[3] = Diazepam plasma PK after single-dose IM administration of more concentrated AVF to dogs, Study 2 (Example 2); settings: for AUClast/D (diazepam) / Cmax/D (diazepam): N=6, 0.0952 mol/L AVF, NCA
[4] = geometric mean, N=6, Study 1, IM, NCA
[5] = mean, N=6, Study 1, IM, NCA, Table 5
[6] = pooled without and with niacin, IM vs SQ

Avizafone
mean K01 (input rate constant) for DZP ([1]; Study 1, IM, compartment modeling): 0.2289 min⁻¹ | AUClast/D (diazepam) [1, 4]: 22243 (min*ng/mL)/(mg/kg) | Cmax/D (diazepam) [1, 4]: 650 (ng/mL)/(mg/kg) | AUClast/D (diazepam) [1, 5]: 22637 (min*ng/mL)/(mg/kg) | Cmax/D (diazepam) [1, 5]: 702 (ng/mL)/(mg/kg) | V/F (diazepam) ([1]; mean, single-dose IM approx. 1.6 to 1.8 mg/kg avizafone, NCA): 1.435 L/kg | Cmax/D (diazepam) ([1]; mean, single-dose IM approx. 1.6 to 1.8 mg/kg avizafone, NCA, Table 2): 397 (ng/mL)/(mg/kg) | AUClast/D (diazepam) ([1]; median, N=6, Study 1, IM, NCA): 22225 (min*ng/mL)/(mg/kg) | Cmax/D (diazepam) ([1]; median, N=6, Study 1, IM, NCA): 574 (ng/mL)/(mg/kg) | DZP AUClast/D higher following IM than following SQ administration [1, 6]: 1.43 fold | DZP Cmax/D higher following IM than following SQ administration [1, 6]: 1.50 fold | median time for onset of sedation (beagle dogs; Study 1, IM, less concentrated AVF formulations (mean 0.0300 mol/L)): greater than 45 minutes | median time for onset of sedation (beagle dogs; Study 2, IM, more concentrated formulation (0.0952 mol/L)): approximately 10 minutes | Cmax/D (diazepam) [2]: 264 (ng/mL)/(mg/kg) | V/F (diazepam) [2]: 2.432 L/kg | shorter Tmax in Study 2 than in Study 1 ([3]; 3-fold higher injection solution concentration, 3-fold smaller injection volume, IM): 3 fold | mean K01 higher in Study 2 compared to Study 1 ([3]; IM, Study 2 vs Study 1, compartment modeling): 4.2 fold | mean K01 (input rate constant) for DZP ([3]; Study 2, IM, compartment modeling): 0.9501 min⁻¹ | AUClast/D (diazepam) ([3]; geometric mean, Study 2, IM): 22101 (min*ng/mL)/(mg/kg) | Cmax/D (diazepam) ([3]; geometric mean, Study 2, IM): 644 (ng/mL)/(mg/kg) | AUClast/D (diazepam) ([3]; mean, Study 2, IM): 22176 (min*ng/mL)/(mg/kg) | Cmax/D (diazepam) ([3]; mean, Study 2, IM): 656 (ng/mL)/(mg/kg) | AUClast/D (diazepam) ([3]; median, Study 2, IM): 21903 (min*ng/mL)/(mg/kg) | Cmax/D (diazepam) ([3]; median, Study 2, IM): 605 (ng/mL)/(mg/kg)
